These are literature values, as cited in patent US20040180034A1, “Anthelmintic resinates and a method for their preparation” (priority 2003, published 2004).

For `O=C(C1CCCCC1)N1CC(=O)N2CCc3ccccc3C2C1` (centres unmarked) [Praziquantel, 4H-Pyrazino[2,1-a]isoquinolin-4-one, 2-(cyclohexylcarbonyl)-1,2,3,6,7,11b-hexahydro-(9CI)], where the note is “after injection”, the “cats experiencing weakness, salivation, or nausea” value is listed as “approximately one cat in ten”. Further, the animals experiencing nausea entry (oral form) is “at least one out of twenty”.
